We go through two compounds from patent EP1674457B1, “Derivatives of squaric acid with anti-proliferative activity” (GPC Biotech AG, priority 2004, dated 2006).

Where only a bound is given, the exact number is not on record here.

Assay [1] deals with A-549. As to the kind of experiment: SRB assay, inhibition of tumor cell growth at 1 µM (Example 61). Format: cell-based. Particulars: Homo sapiens, A549, 48 hours. Here is the method: (§1) 3,000-15,000 cells/well were exposed to the test compounds at a concentration of 1 µM for 48 hours, and cytotoxicty was measured using the SRB assay according to Shekan et al (J Natl Cancer Inst (1990) 82, 1107-112). Briefly, cells were plated in 96 well dishes 24 hours prior to compound addition. The assay was terminated with the addition of cold TCA to a final concentration of 10% and the plates were incubated for one hour at 4°C. The plates were then washed 5 times with water and 100µl of a Sulforhodamine B solution (4%) was added to each well. The plate was then incubated for 10 minutes at room temperature before removal of unbound dye by washing with 1% acetic acid. The bound dye was solubilized with 10 mM Trizma base and the absorbance read at OD570. Inhibitory activity of the compounds was calculated as % inhibition compared to cells treated with the solvent (DMSO). Table 2 represents the growth inhibitory activity of certain compunds of the invention across a number of tumor cell lines.

In assay [2] the test system is PC-3. Described as above. In kind it is cell-based. Particulars: Homo sapiens, 48 hours. Here is the method:
as §1

The subject of assay [3] is HCT-116. The assay is described as above. In kind it is cell-based. Particulars: Homo sapiens, 48 hours. The procedure: as §1
Assay [4] concerns SW-620. Described as above. Format: cell-based. Particulars: Homo sapiens, 48 hours. Here is the method: as §1
Assay [5] relates to A-549. Description: IC50 determination by SRB assay (Example 62). In kind it is cell-based. Particulars: Homo sapiens, A549. The procedure:
as §1
(§2) The assay was performed similar to example 61. However, test compounds were added at various concentrations, such as from 0.001 to about 0.1 µM, from 0.1 to about 10 µM, or from 1 to about 10 µM, as the need may be, in order to estimate the IC50 values. IC50 values were determined by plotting the percentage inhibitory activity for each concentration, fitting a curve using appropriate software and estimating the concentration at which 50% inhibition of growth would occur.

The subject of assay [6] is PC-3. Description: IC50 determination by SRB assay (Example 62). In kind it is cell-based. Particulars: Homo sapiens. The procedure: as §1, §2
In assay [7] the test system is A2780. As to the kind of experiment: IC50 determination by SRB assay (Example 62). Particulars: Homo sapiens. Format: cell-based. Here is the method:
as §1, §2

The test system of assay [8] is HCT-116. As to the kind of experiment: IC50 determination by SRB assay (Example 62). In kind it is cell-based. Particulars: Homo sapiens, HCT-116; HCY-116. The procedure: as §1, §2
Assay [9] concerns MCF7. Description: IC50 determination by SRB assay (Example 62). Format: cell-based. Particulars: Homo sapiens. The procedure:
as §1, §2

Assay [10] relates to A2780. Description: SRB assay, inhibition of tumor cell growth at 1 µM (Example 61). Format: cell-based, Human. Particulars: Homo sapiens, 48 hours. Here is the method: as §1
For assay [11], the system named is MCF7. The assay is described as above. Particulars: Homo sapiens, 48 hours. In kind it is cell-based. The procedure: as §1
Assay [12] concerns SW-620. Description: IC50 determination by SRB assay (Example 62). In kind it is cell-based. Particulars: Homo sapiens. The procedure: as §1, §2

As for `O=c1c(NCCCCCCOc2ccc(OCCN3CCOCC3)cc2)c(Nc2ccncc2)c1=O` [SQ-23, 3-[6-(4-(2-Morpholin-4-yl-ethoxy)-phenoxy)-hexylamino]-4-(pyridin-4-yl-amino)-cyclobut-3-ene-1,2-dione], the inhibition at 1 µM is above 50% in [1]; above 50% in assay [2]; above 80% in [3]; above 20% in assay [4]; above 80% in assay [10]. In addition, the half-maximal inhibitory concentration (IC50) in assay [5] was below 20 nM; in assay [6], below 20 nM; in [7], below 20 nM; in assay [8] it was below 20 nM; in assay [9] it was below 500 nM.
As for `O=c1c(NCCCCCCOc2ccc(OCCN3CCOCC3)cc2)c(Nc2cccnc2)c1=O` [SQ-24, 3-[6-(4-(2-Morpholin-4-yl-ethoxy)-phenoxy)-hexylamino]-4-(pyridin-3-yl-amino)-cyclobut-3-ene-1,2-dione], the inhibition at 1 µM was above 50% in [1]; above 50% in assay [2]; above 80% in assay [3]; above 20% in [4]; above 20% in assay [11]; above 80% in assay [10]. Further, the half-inhibitory concentration (IC50) is below 100 nM in [5]; below 100 nM in assay [6]; below 20 nM in assay [7]; below 20 nM in assay [8]; below 2000 nM in assay [12].
